Source: article PMC9895995, “Laccase Immobilization on Copper-Magnetic Nanoparticles for Efficient Bisphenol Degradation” (Journal of Microbiology and Biotechnology, 2022)

System: T1, Rhus vernicifera laccase (free laccase)
T1 construct: gene urishiol oxidase
Details: free enzyme; 100 mM sodium citrate buffer, optimum pH (3.5), 25°C; ABTS 0.05-20.0 mM

CCn1c(=NN=c2sc3cc(S(=O)(=O)O)ccc3n2CC)sc2cc(S(=O)(=O)O)ccc21 [ABTS, 2,2'-azino-bis (3-ethylbenzothiazoline-6-sulfonic acid)]
Km: 1720 ± 380 µM
